Test results taken from US20210386720A1, “METHODS OF TREATING CNS TUMORS WITH TESETAXEL” (Odonate Therapeutics, Inc., priority 2018, published 2021).

Experiments:
[1] = system: taxane-resistant tumors; experiment: Nonclinical studies of activity against taxane-resistant tumors
[2] = Human plasma and CNS tissue binding by rapid equilibrium dialysis; assay type: in vitro ADME
[3] = In vivo tissue distribution of 14C-tesetaxel in monkeys; set-up: species or system monkey; conditions: for t1/2 / Cerebellum / Cerebrum / Plasma: 1 mg/kg; for Cerebellum / Cerebrum / Plasma: 14 days post-dose, radioactivity
Protocol: (§1) The in vivo tissue distribution of tesetaxel was previously investigated in mice treated with ^14C-tesetaxel at 4 mg/kg and sacrificed between 1-168 hours.^1 Two additional studies have been conducted in dogs and monkeys.
(§2) Dogs and monkeys were dosed at 0.6 mg/kg and 1 mg/kg of ^14C-tesetaxel, respectively, and tissue distribution was assessed at 336 hours post-dose (14 days). These doses equate to ˜44% of the 27 mg/m^2 dose in an ongoing Phase 3 clinical study. In vivo radioactivity concentrations in the cerebrum and cerebellum were compared to plasma concentrations and mean tumor GI50 (concentration resulting in 50% tumor growth inhibition) determined by MTT assay in 23 tumor cell lines.

[4] = In vivo tissue distribution of 14C-tesetaxel in dogs; set-up: species or system dog; conditions: for t1/2 / Cerebellum / Cerebrum / Plasma: 0.6 mg/kg; for Cerebellum / Cerebrum / Plasma: 14 days post-dose, radioactivity
Protocol: as §1, §2

[5] = Terminal plasma half-life in humans
[6] = monkey, single oral dose of 1 mg/kg, N=3
[7] = dog, single oral dose of 0.6 mg/kg, N=3

CC(=O)O[C@@]12CO[C@@H]1CC[C@@]1(C)[C@@H]3O[C@H](CN(C)C)O[C@@H]3C3=C(C)[C@@H](OC(=O)[C@H](O)[C@@H](NC(=O)OC(C)(C)C)c4ncccc4F)C[C@@](O)([C@@H](OC(=O)c4ccccc4)[C@@H]12)C3(C)C [Tesetaxel]
Activity against taxane-resistant tumors [1]: retain activity against taxane-resistant tumors | CNS tissue binding ([2]; CNS tissue): 98.9% | Human plasma binding ([2]; plasma): 98.2% | t1/2 ([3]; monkey, IV): 72 h | Cerebellum ([3]; monkey, IV): 18 ± 1.0 ng eq/g | Cerebrum ([3]; monkey, IV): 21 ± 2.0 ng eq/g | Plasma ([3]; monkey, IV): 1.0 ± 0.0 ng eq/mL | t1/2 ([3]; monkey, PO): 52.8 h | Cerebellum ([3]; monkey, PO): 4.4 ± 1.7 ng eq/g | Cerebrum ([3]; monkey, PO): 6.5 ± 3.8 ng eq/g | Plasma ([3]; monkey, PO): 0.9 ± 0.2 ng eq/mL | Cerebrum/Plasma ([3]; monkey, single oral dose of 1 mg/kg, 14 days after dosing): 7x | 14C-Tesetaxel Radioactivity Concentration 14 Days after Dosing, Cerebrum (Mean ± SD) [3, 6]: 6.5 ± 3.8 ng eq./g or mL | 14C-Tesetaxel Radioactivity Concentration 14 Days after Dosing, Plasma (Mean ± SD) [3, 6]: 0.9 ± 0.2 ng eq./g or mL | CNS penetration ([3]; monkeys, oral (PO) or intravenous (IV) administration): CNS penetration was observed | t1/2 ([4]; dog, IV): 72 h | Cerebellum ([4]; dog, IV): 7.8 ± 0.6 ng eq/g | Cerebrum ([4]; dog, IV): 16.8 ± 2.9 ng eq/g | Plasma ([4]; dog, IV): 0.5 ± 0.0 ng eq/mL | t1/2 ([4]; dog, PO): 96 h | Cerebellum ([4]; dog, PO): 6.1 ± 1.9 ng eq/g | Cerebrum ([4]; dog, PO): 10.9 ± 4.0 ng eq/g | Plasma ([4]; dog, PO): 0.9 ± 0.1 ng eq/mL | Cerebrum/Plasma ([4]; dog, single oral dose of 0.6 mg/kg, 14 days after dosing): 12x | 14C-Tesetaxel Radioactivity Concentration 14 Days after Dosing, Cerebrum (Mean ± SD) [4, 7]: 10.9 ± 4.0 ng eq./g or mL | 14C-Tesetaxel Radioactivity Concentration 14 Days after Dosing, Plasma (Mean ± SD) [4, 7]: 0.9 ± 0.1 ng eq./g or mL | CNS penetration ([4]; dogs, oral (PO) or intravenous (IV) administration): CNS penetration was observed | Terminal plasma half-life (t1/2) [5]: ~190 h
